Common to all, as to assay: hydroperoxide formation at […] nm, spectrophotometer, initial rate
Type in all cases: biochemical
Holding throughout (details): Tris-HCl pH 9.0, 30 °C

Assay [1] deals with T1, Ana-rLOX (Nostoc sp. PCC 7120 = FACHB-418, UniProt Q8YK97, S755T).
T1 construct: gene all8020

The target in assay [2] is T2, Ana-rLOX (Nostoc sp. PCC 7120 = FACHB-418, UniProt Q8YK97, N448D/S755Y).
T2 construct: gene all8020

The target of assay [3] is T3, Ana-rLOX (Nostoc sp. PCC 7120 = FACHB-418, UniProt Q8YK97, G578A).
T3 construct: gene all8020

The target of assay [4] is T4, Ana-rLOX (Nostoc sp. PCC 7120 = FACHB-418, UniProt Q8YK97, N448D/G578Q).
T4 construct: gene all8020

Assay [5] addresses T5, Ana-rLOX (Nostoc sp. PCC 7120 = FACHB-418, UniProt Q8YK97).
T5 construct: gene all8020
T5 sequence (Q8YK97 319-773 limits assumed): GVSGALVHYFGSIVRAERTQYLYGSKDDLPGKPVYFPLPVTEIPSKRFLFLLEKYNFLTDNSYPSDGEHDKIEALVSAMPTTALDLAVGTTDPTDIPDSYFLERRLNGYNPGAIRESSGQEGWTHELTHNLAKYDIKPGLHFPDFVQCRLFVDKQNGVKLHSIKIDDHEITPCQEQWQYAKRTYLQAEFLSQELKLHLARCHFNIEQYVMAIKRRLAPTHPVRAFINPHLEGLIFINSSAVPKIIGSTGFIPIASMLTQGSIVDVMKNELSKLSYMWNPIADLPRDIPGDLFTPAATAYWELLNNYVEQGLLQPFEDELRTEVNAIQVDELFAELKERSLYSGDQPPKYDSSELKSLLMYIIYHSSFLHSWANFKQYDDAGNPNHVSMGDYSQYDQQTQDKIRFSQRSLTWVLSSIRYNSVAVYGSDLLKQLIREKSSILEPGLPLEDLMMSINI

The target in assay [6] is T6, Ana-rLOX (Nostoc sp. PCC 7120 = FACHB-418, UniProt Q8YK97, N448D).
T6 construct: gene all8020

Molecules are shown by their SMILES.

Broadly, the Km is the substrate concentration at which the rate is half of its maximum.

T4 sequence (Q8YK97 319-773 N448D/G578Q): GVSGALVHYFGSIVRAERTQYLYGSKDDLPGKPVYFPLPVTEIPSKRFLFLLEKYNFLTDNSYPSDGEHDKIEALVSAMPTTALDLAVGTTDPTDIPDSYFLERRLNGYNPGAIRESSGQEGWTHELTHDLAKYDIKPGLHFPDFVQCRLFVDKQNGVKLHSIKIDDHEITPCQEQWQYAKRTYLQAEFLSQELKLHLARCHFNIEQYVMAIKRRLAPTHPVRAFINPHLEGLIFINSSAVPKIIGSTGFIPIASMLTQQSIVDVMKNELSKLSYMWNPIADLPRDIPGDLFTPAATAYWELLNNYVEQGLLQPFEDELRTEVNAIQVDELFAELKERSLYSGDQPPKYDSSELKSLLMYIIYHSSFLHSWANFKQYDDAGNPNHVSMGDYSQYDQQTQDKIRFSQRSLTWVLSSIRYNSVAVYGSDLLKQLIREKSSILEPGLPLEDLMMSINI
T3 sequence (Q8YK97 319-773 G578A): as the sequence (Q8YK97 319-773 N448D/G578Q) above, with D130N, Q260A counted along it
T2 sequence (Q8YK97 319-773 N448D/S755Y): as the sequence (Q8YK97 319-773 N448D/G578Q) above, with Q260G, S437Y counted along it
T6 sequence (Q8YK97 319-773 N448D): as the sequence (Q8YK97 319-773 N448D/G578Q) above, with Q260G counted along it
T1 sequence (Q8YK97 319-773 S755T): as the sequence (Q8YK97 319-773 N448D/G578Q) above, with D130N, Q260G, S437T counted along it

On to `CCCCC/C=C\C/C=C\CCCCCCCC(=O)O` [linoleic acid], for which the Km in assay [1] amounted to 56 ± 4.7 µM; in assay [2] it was 15 ± 1.1 µM; in assay [3], 34 ± 2.3 µM; in assay [4] it was 13 ± 1 µM; in assay [5], 56 ± 4 µM; in assay [6] it was 30 ± 2.6 µM.

Values taken from article PMC6148764, “Consensus design for improved thermostability of lipoxygenase from Anabaena sp. PCC 7120” (BMC Biotechnology, 2018).
